Assay results published in publication PMC4801149 (Drug Design, Development and Therapy, 2016).
Like-named read-outs stand apart in the source and are kept apart here.

Key:
other CDKs = test: Kinase assay in vitro, other CDKs overall; assay type: biochemical; settings: read-out: IC50 values for inhibition of other CDKs; CDKs other than CDK7
BGC823 cells [1] = test: Transwell cell migration assay; assay type: cell-based, Human; settings: 24 hours, dose-dependent, P<0.05
BGC823 cells [2] = test: Matrigel-coated transwell invasion assay; assay type: cell-based, Human; settings: 24 hours, matrigel-coated transwells, dose-dependent, P<0.05
BGC823 cells [3] = test: Apoptosis by flow cytometry; assay type: cell-based, Human; settings: compared to control, dose- and time-dependent, P<0.05
BGC823 cells [4] = test: Western blot of apoptosis and cell cycle proteins; assay type: cell-based, Human; settings: P<0.05
BGC823 cells [5] = test: Cell cycle distribution by flow cytometry; assay type: cell-based, Human
[6] = tested on: RNA polymerase II CTD serine 5 (P-Ser5), CDK7 phosphorylation site; test: Immunoblotting of RNA polymerase II CTD Ser5 phosphorylation; assay type: cell-based, Human; settings: BGC823 whole cell lysates, 4 hours
[7] = cited from earlier work

Structure (SMILES)	mice died in additional 30-day survival observation (BGC823 xenograft; roscovitine 20 mg/kg/d for 14 days, five of ten)	IC50 (other CDKs)	cell migration ability (BGC823 cells [1])	cell invasion ability (BGC823 cells [2])	apoptotic cells (BGC823 cells [3])	XIAP expression (BGC823 cells [4])	cyclin D1 expression (BGC823 cells [4])	Bax expression (BGC823 cells [4]; compared to control)	Bcl-2 level (BGC823 cells [4]; compared to control)	caspase-3 expression (BGC823 cells [4]; compared to control)	cell population in S and G2/M phases (BGC823 cells [5])	cells in G0/G1 (BGC823 cells [5])	phosphorylation of the RNA polymerase II CTD at serine 5 (P-Ser5) [6]	mice body weights, difference between groups (BGC823 xenograft; 14-day observation, 10 or 20 mg/kg/d ip)	mice died in additional 30-day survival observation (BGC823 xenograft; BS-181 10 mg/kg/d ip for 14 days, six of ten)	mice died in additional 30-day survival observation (BGC823 xenograft; BS-181 20 mg/kg/d ip for 14 days, three of ten)	toxicity (BGC823 xenograft; daily dose of 10 mg/kg or 20 mg/kg ip, 14 days)	tumor growth (BGC823 xenograft; ip twice daily, 10 or 20 mg/kg/d, 14 days, dose-dependent, compared to control, P<0.05)	tolerability ([7]; dose of 10 mg/kg/d or 20 mg/kg/d, BALB/c-nu mice)	maximum tolerated single dose ([7]; given intraperitoneally)
CC[C@H](CO)Nc1nc(NCc2ccccc2)c2ncn(C(C)C)c2n1 [Roscovitine, roscovitine]	50%																			
CC(C)c1cnn2c(NCc3ccccc3)cc(NCCCCCCN)nc12 [BS-181]		> 1000 nM	significantly inhibited	significantly inhibited	Significant increases	significant reduction	significant reduction	significantly increased	reduced	significantly increased	reduction	increase	inhibited	no significant difference	60%	30%	no apparent toxicity	significantly inhibited	well-tolerated	30 mg/kg/day
